{
  "source": "patent US10654833B2",
  "about": "“ASK1 isoindolin-1-one inhibitors and methods of use thereof” (Hepatikos Therapeutics, LLC, priority 2018, dated 2020)",
  "data": [
    {"molecular_target": "recombinant human ASK1 protein (Homo sapiens (Human), UniProt Q99683)", "sequence (Q99683 whole entry)": "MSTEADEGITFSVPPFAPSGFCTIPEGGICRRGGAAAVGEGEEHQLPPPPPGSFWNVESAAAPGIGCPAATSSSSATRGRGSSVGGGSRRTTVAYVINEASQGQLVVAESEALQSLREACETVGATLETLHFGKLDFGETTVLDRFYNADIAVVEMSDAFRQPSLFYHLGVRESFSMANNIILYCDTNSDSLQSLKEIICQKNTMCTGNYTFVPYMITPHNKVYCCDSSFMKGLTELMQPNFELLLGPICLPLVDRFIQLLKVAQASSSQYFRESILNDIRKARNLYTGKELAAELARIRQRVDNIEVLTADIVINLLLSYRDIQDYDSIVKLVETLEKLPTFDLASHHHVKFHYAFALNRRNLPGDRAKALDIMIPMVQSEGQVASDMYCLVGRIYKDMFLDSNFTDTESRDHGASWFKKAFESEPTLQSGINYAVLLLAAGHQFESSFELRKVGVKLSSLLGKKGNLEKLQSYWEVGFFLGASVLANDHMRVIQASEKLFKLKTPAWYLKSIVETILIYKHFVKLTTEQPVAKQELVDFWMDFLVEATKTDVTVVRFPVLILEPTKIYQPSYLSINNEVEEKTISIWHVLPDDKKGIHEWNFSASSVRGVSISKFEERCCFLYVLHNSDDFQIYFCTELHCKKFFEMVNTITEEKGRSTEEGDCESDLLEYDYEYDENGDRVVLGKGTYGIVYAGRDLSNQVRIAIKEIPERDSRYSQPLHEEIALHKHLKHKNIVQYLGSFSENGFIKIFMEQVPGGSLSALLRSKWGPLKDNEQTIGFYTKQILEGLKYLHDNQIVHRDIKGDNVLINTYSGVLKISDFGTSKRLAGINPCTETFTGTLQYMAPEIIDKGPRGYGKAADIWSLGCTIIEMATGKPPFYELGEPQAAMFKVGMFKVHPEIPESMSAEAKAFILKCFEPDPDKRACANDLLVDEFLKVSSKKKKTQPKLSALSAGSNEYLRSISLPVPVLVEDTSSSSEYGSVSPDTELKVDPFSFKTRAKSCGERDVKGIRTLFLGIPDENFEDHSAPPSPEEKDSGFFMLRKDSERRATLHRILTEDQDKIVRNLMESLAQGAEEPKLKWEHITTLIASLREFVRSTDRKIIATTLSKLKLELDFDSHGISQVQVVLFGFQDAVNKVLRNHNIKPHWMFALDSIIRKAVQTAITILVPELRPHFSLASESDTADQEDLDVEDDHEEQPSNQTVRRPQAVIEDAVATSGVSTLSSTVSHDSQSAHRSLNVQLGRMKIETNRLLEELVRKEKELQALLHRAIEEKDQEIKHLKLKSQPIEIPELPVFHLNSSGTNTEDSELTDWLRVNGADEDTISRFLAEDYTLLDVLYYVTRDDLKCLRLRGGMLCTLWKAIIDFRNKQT", "assay": "ASK1 kinase activity inhibition assay (radiometric 33P incorporation into MBP)", "type": "biochemical", "conditions": "Table 3; 20 μM MBP, 10 μM 33P-ATP", "procedure": "ASK1 Kinase Activity Inhibition Assay\nInhibition of ASK1 kinase activity was determined radiometrically using 33P substrate incorporation (Reaction Biology Corp., Malvern, Pa.). Briefly, recombinant human ASK1 protein, 20 μM substrate (myelin basic protein (MBP)), and compound (diluted from DMSO stock to give 1% final DMSO) were incubated in Base Reaction buffer (20 mM Hepes (pH 7.5), 10 mM MgCl2, 1 mM EGTA, 0.02% Brij35, 0.02 mg/mL BSA, 0.1 mM Na3VO4, 2 mM DTT, 1% DMSO) at room temperature for 20 minutes. The reaction was initiated by addition of 10 μM 33P-ATP (specific activity […]). The reaction was then allowed to proceed for 2 hours at room temperature. Upon reaction termination, the mixture was spotted on P81 exchange paper and kinase activity by incorporation of 33P into MBP substrate was detected by filter-binding method.", "units": {"IC50": "nM"}, "values": [
      {"smiles": "CC(C)n1cnnc1-c1cccc(N2Cc3ccc(-c4cnc(N)c(C(=O)O)c4)cc3C2=O)n1", "note": "[Compound 117, 2-Amino-5-(2-(6-(4-isopropyl-4H-1,2,4-triazol-3-yl)pyridin-2-yl)-3-oxoisoindolin-5-yl) Nicotinic Acid]", "IC50": 1.9},
      {"smiles": "O=C1c2cc(-c3cccc(C4(C(=O)O)CC4)c3)ccc2CN1c1cccc(-c2nncn2C2CC2)n1", "note": "[Compound 106, 1-(3-(2-(6-(4-Cyclopropyl-4H-1,2,4-triazol-3-yl)pyridin-2-yl)-3-oxoisoindolin-5-yl)phenyl)cyclopropane-1-carboxylic Acid]", "IC50": 8.4},
      {"smiles": "Cc1cc(C(=O)O)cc(-c2ccc3c(c2)C(=O)N(c2cccc(-c4nncn4C(C)C)n2)C3)n1", "note": "[Compound 115, 2-(2-(6-(4-Isopropyl-4H-1,2,4-triazol-3-yl)pyridin-2-yl)-3-oxoisoindolin-5-yl)-6-methylisonicotinic Acid]", "IC50": 6.5},
      {"smiles": "CC(C)n1cnnc1-c1cccc(N2Cc3ccc(-c4ccc(C(=O)O)cc4CO)cc3C2=O)n1", "note": "[Compound 58, 3-(Hydroxymethyl)-4-(2-(6-(4-isopropyl-4H-1,2,4-triazol-3-yl)pyridin-2-yl)-3-oxoisoindolin-5-yl)benzoic Acid]", "IC50": 5.1},
      {"smiles": "CC(C)n1cnnc1-c1cccc(N2Cc3ccc(-c4cccc(-c5nn[nH]n5)c4)cc3C2=O)n1", "note": "[Compound 37, 6-(3-(2H-Tetrazol-5-yl)phenyl)-2-(6-(4-isopropyl-4H-1,2,4-triazol-3-yl)pyridin-2-yl)isoindolin-1-one]", "IC50": 2.8},
      {"smiles": "Cc1c(C(=O)O)ccnc1-c1ccc2c(c1)C(=O)N(c1cccc(-c3nncn3C(C)C)n1)C2", "note": "[Compound 114, 2-(2-(6-(4-Isopropyl-4H-1,2,4-triazol-3-yl)pyridin-2-yl)-3-oxoisoindolin-5-yl)-3-methylisonicotinic Acid]", "IC50": 2.1},
      {"smiles": "COc1cc(C(=O)O)ccc1-c1ccc2c(c1)C(=O)N(c1cccc(-c3nncn3C(C)C)n1)C2", "note": "[Compound 76, 4-(2-(6-(4-Isopropyl-4H-1,2,4-triazol-3-yl)pyridin-2-yl)-3-oxoisoindolin-5-yl)-3-methoxybenzoic Acid]", "IC50": 8.2},
      {"smiles": "CC(C)n1cnnc1-c1cccc(N2Cc3ccc(-c4cc(-c5nn[nH]n5)ccc4F)cc3C2=O)n1", "note": "[Compound 111, 6-(2-Fluoro-5-(2H-tetrazol-5-yl)phenyl)-2-(6-(4-isopropyl-4H-1,2,4-triazol-3-yl)pyridin-2-yl)isoindolin-1-one]", "IC50": 6.4},
      {"smiles": "Cc1cc(C(=O)O)ccc1-c1ccc2c(c1)C(=O)N(c1cccc(-c3nncn3C(C)C)n1)C2", "note": "[Compound 74, 4-(2-(6-(4-Isopropyl-4H-1,2,4-triazol-3-yl)pyridin-2-yl)-3-oxoisoindolin-5-yl)-3-methylbenzoic Acid]", "IC50": 5.7},
      {"smiles": "O=C(O)c1ccc(F)c(-c2ccc3c(c2)C(=O)N(c2cccc(-c4nncn4C4CC4)n2)C3)c1", "note": "[Compound 93, 3-(2-(6-(4-Cyclopropyl-4H-1,2,4-triazol-3-yl)pyridin-2-yl)-3-oxoisoindolin-5-yl)-4-fluorobenzoic Acid]", "IC50": 12.4},
      {"smiles": "Cc1c(F)cc(C(=O)O)cc1-c1ccc2c(c1)C(=O)N(c1cccc(-c3nncn3C(C)C)n1)C2", "note": "[Compound 98, 3-Fluoro-5-(2-(6-(4-isopropyl-4H-1,2,4-triazol-3-yl)pyridin-2-yl)-3-oxoisoindolin-5-yl)-4-methylbenzoic Acid]", "IC50": 4.9},
      {"smiles": "CC(C)n1cnnc1-c1cccc(N2Cc3ccc(-c4cccc(CCC(=O)O)c4)cc3C2=O)n1", "note": "[Compound 107, 3-(3-(2-(6-(4-Isopropyl-4H-1,2,4-triazol-3-yl)pyridin-2-yl)-3-oxoisoindolin-5-yl)phenyl) Propanoic Acid]", "IC50": 5.2},
      {"smiles": "CC(C)n1cnnc1-c1cccc(N2Cc3ccc(-c4cc(C(=O)O)ccc4CO)cc3C2=O)n1", "note": "[Compound 59, 4-(Hydroxymethyl)-3-(2-(6-(4-isopropyl-4H-1,2,4-triazol-3-yl)pyridin-2-yl)-3-oxoisoindolin-5-yl)benzoic Acid]", "IC50": 5.3},
      {"smiles": "CC(C)n1cnnc1-c1cccc(N2Cc3ccc(N4CCCC(C(=O)O)C4)cc3C2=O)n1", "note": "(centres unmarked) [Compound 28, 1-(2-(6-(4-Isopropyl-4H-1,2,4-triazol-3-yl)pyridin-2-yl)-3-oxoisoindolin-5-yl)piperidine-3-carboxylic Acid]", "IC50": 11.2},
      {"smiles": "CC(C)n1cnnc1-c1cccc(N2Cc3ccc(-c4ccccc4C(=O)O)cc3C2=O)n1", "note": "[Compound 56, 2-(2-(6-(4-Isopropyl-4H-1,2,4-triazol-3-yl)pyridin-2-yl)-3-oxoisoindolin-5-yl)benzoic Acid]", "IC50": 42.2},
      {"smiles": "Cc1c(C(=O)O)cc(N)cc1-c1ccc2c(c1)C(=O)N(c1cccc(-c3nncn3C(C)C)n1)C2", "note": "[Compound 68, 5-Amino-3-(2-(6-(4-isopropyl-4H-1,2,4-triazol-3-yl)pyridin-2-yl)-3-oxoisoindolin-5-yl)-2-methylbenzoic Acid]", "IC50": 12.4},
      {"smiles": "CC(C)n1cnnc1-c1cccc(N2Cc3ccc(-c4ccc(-c5nnn[nH]5)cc4)cc3C2=O)n1", "note": "[Compound 91, 6-(4-(2H-Tetrazol-5-yl)phenyl)-2-(6-(4-isopropyl-4H-1,2,4-triazol-3-yl)pyridin-2-yl)isoindolin-1-one]", "IC50": 7.9},
      {"smiles": "CC(C)n1cnnc1-c1cccc(N2Cc3ccc(-c4ccc(CC(=O)O)cc4)cc3C2=O)n1", "note": "[Compound 84, 2-(4-(2-(6-(4-Isopropy-4H-1,2,4-triazol-3-yl)pyridin-2-yl)-3-oxoisoindolin-5-yl)phenyl)acetic Acid]", "IC50": 4.3},
      {"smiles": "CC(C)n1cnnc1-c1cccc(N2Cc3ccc(-c4ccc(CCC(=O)O)cc4)cc3C2=O)n1", "note": "[Compound 90, 3-(4-(2-(6-(4-Isopropyl-4H-1,2,4-triazol-3-yl)pyridin-2-yl)-3-oxoisoindolin-5-yl)phenyl)propanoic Acid]", "IC50": 4.4},
      {"smiles": "COC(=O)c1ccc(F)c(-c2ccc3c(c2)C(=O)N(c2cccc(-c4nncn4C(C)C)n2)C3)c1", "note": "[Compound 100, Methyl 4-fluoro-3-(2-(6-(4-isopropyl-4H-1,2,4-triazol-3-yl)pyridin-2-yl)-3-oxoisoindolin-5-yl)benzoate]", "IC50": 6.57},
      {"smiles": "CC(C)n1cnnc1-c1cccc(N2Cc3ccc(-c4ccc5c(C(=O)O)cnn5c4)cc3C2=O)n1", "note": "[Compound 122, 6-(2-(6-(4-Isopropyl-4H-1,2,4-triazol-3-yl)pyridin-2-yl)-3-oxoisoindolin-5-yl)pyrazolo[1,5-a]pyridine-3-carboxylic Acid]", "IC50": 3.9},
      {"smiles": "Cc1ccc(C(=O)O)cc1-c1ccc2c(c1)C(=O)N(c1cccc(-c3nncn3C(C)C)n1)C2", "note": "[Compound 11, 3-(2-(6-(4-Isopropyl-4H-1,2,4-triazol-3-yl)pyridin-2-yl)-3-oxoisoindolin-5-yl)-4-methylbenzoic Acid]", "IC50": 5.9},
      {"smiles": "CC(C)n1cnnc1-c1cccc(N2Cc3ccc(-c4ccc5cc(C(=O)O)[nH]c5c4)cc3C2=O)n1", "note": "[Compound 61, 6-(2-(6-(4-Isopropyl-4H-1,2,4-triazol-3-yl)pyridin-2-yl)-3-oxoisoindolin-5-yl)-1H-indole-2-carboxylic Acid]", "IC50": 5.1},
      {"smiles": "CC(C)n1cnnc1-c1cccc(N2Cc3ccc(-c4ccc5c(c4)COC5=O)cc3C2=O)n1", "note": "[Compound 82, 2-(6-(4-Isopropyl-4H-1,2,4-triazol-3-yl)pyridin-2-yl)-6-(1-oxo-1,3-dihydroisobenzofuran-5-yl)isoindolin-1-one]", "IC50": 3.2},
      {"smiles": "O=C1c2cc(-c3cccc(-c4nn[nH]n4)c3)ccc2CN1c1cccc(-c2nncn2C2CC2)n1", "note": "[Compound 110, 6-(3-(2H-Tetrazol-5-yl)phenyl)-2-(6-(4-cyclopropyl-4H-1,2,4-triazol-3-yl)pyridin-2-yl)isoindolin-1-one]", "IC50": 5.44},
      {"smiles": "CC(C)n1cnnc1-c1cccc(N2Cc3ccc(-c4ccn5ncc(C(=O)O)c5n4)cc3C2=O)n1", "note": "[Compound 124, 5-(2-(6-(4-Isopropyl-4H-1,2,4-triazol-3-yl)pyridin-2-yl)-3-oxoisoindolin-5-yl)pyrazolo[1,5-a]pyrimidine-3-carboxylic Acid]", "IC50": 8.3},
      {"smiles": "CC(C)n1cnnc1-c1cccc(N2Cc3ccc(-c4ccc(C(=O)O)cc4F)cc3C2=O)n1", "note": "[Compound 57, 3-Fluoro-4-(2-(6-(4-isopropyl-4H-1,2,4-triazol-3-yl)pyridin-2-yl)-3-oxoisoindolin-5-yl)benzoic Acid]", "IC50": 5.8},
      {"smiles": "O=C(O)C1CCCN(c2ccc3c(c2)C(=O)N(c2cccc(-c4nncn4C4CC4)n2)C3)C1", "note": "(centres unmarked) [Compound 131, 1-(2-(6-(4-Cyclopropyl-4H-1,2,4-triazol-3-yl)pyridin-2-yl)-3-oxoisoindolin-5-yl)piperidine-3-carboxylic Acid]", "IC50": 21.7},
      {"smiles": "CC(C)n1cnnc1-c1cccc(N2Cc3ccc(-c4ncc5ccc(C(=O)O)cc5n4)cc3C2=O)n1", "note": "[Compound 125, 2-(2-(6-(4-Isopropyl-4H-1,2,4-triazol-3-yl)pyridin-2-yl)-3-oxoisoindolin-5-yl)quinazoline-7-carboxylic Acid]", "IC50": 7},
      {"smiles": "CC(C)n1cnnc1-c1cccc(N2Cc3ccc(-c4ccc(C(=O)O)c(Cl)c4)cc3C2=O)n1", "note": "[Compound 72, 2-Chloro-4-(2-(6-(4-isopropyl-4H-1,2,4-triazol-3-yl)pyridin-2-yl)-3-oxoisoindolin-5-yl)benzoic Acid]", "IC50": 4.7},
      {"smiles": "CC(C)n1cnnc1-c1cccc(N2Cc3ccc(-c4ccc(C(=O)O)c(F)c4)cc3C2=O)n1", "note": "[Compound 67, 2-Fluoro-4-(2-(6-(4-isopropyl-4H-1,2,4-triazol-3-yl)pyridin-2-yl)-3-oxoisoindolin-5-yl)benzoic Acid]", "IC50": 5.4},
      {"smiles": "CC(C)n1cnnc1-c1cccc(N2Cc3ccc(-c4ccc(Cl)cc4C(=O)O)cc3C2=O)n1", "note": "[Compound 65, 5-Chloro-2-(2-(6-(4-isopropyl-4H-1,2,4-triazol-3-yl)pyridin-2-yl)-3-oxoisoindolin-5-yl)benzoic Acid]", "IC50": 34.4}
    ]}
  ]
}
